Data taken from article PMC4871480, “A Miniaturized Screen of a Schistosoma mansoni Serotonergic G Protein-Coupled Receptor Identifies Novel Classes of Parasite-Selective Inhibitors” (PLoS Pathogens, 2016).
Entries after “also recorded” stand apart in the source; their conditions may differ. Like-named read-outs stand apart in the source and are kept apart here.

Columns and labels:
Format in all cases: cell-based
Sm.5HTR [1] = target: T1, Sm.5HTR (Schistosoma mansoni, UniProt G4V5G4); test: cell-based; settings: for activity at Sm.5HTR: antagonist/modulator screening; for GPCR inhibition profile compared with rotundine: Sm.5HTR vs Hs.5HT7R, Fig F in S1 Text; for selectivity for Sm.5HTR over Hs.5HT7R: IC50 (Hs.5HT7R) / IC50 (Sm.5HTR); for ligand type at Sm.5HTR: Fig 5F; for Emax: HEK293, read-out: 5-HT Emax; for agonist efficacy at Sm.5HTR: dose response, Fig 5A
Description: (§1) HEK293 cells (ATCC CRL-1573.3) were cultured in DMEM supplemented with 10% fetal bovine serum (FBS), penicillin (100 units/ml), streptomycin (100 μg/ml), and L-glutamine (290 μg/ml). Cells were transiently transfected (ViaFect, Promega) as per the manufacturer’s protocol at a density of 2x10^6 cells per T-25 cell-culture flask. Cells were transfected with plasmids encoding GloSensor (Promega) and either Sm.5HTR (Smp_126730, GenBank accession number KF444051.1) or Sm.5HTRL (KX150867), bothGPCRs being codon optimized for mammalian expression, or Hs.5HT7a (GenBank accession number NM_000872.4, R&D Systems) subcloned into pCS2(-). Cell culture reagents were from Invitrogen. Epitope tagged constructs were used to verify expression, and untagged constructs used for all luminescence assays.
(§2) For assays performed on adherent cells, HEK-293 cells were transferred one day post transfection to 96 well, solid white plates (Corning, cat # 3917) coated with 0.01% poly-L-lysine (Sigma Aldrich) at a density of 5 x 10^4 cells / well in DMEM supplemented with 1% dialyzed FBS (Gibco). After overnight culture (37°C/5% CO2), media was decanted and replaced with 100μL / well HBSS supplemented with 0.1% BSA, 20mM HEPES (pH 7.4) and GloSensor reagent. Plates were allowed to equilibrate at room temperature for two hours prior to performing luminescence assays (GloMax-Multi Detection System plate reader, Promega). Conditions for individual assays were described as per figure legends. The standard assay to detect changes in cAMP utilized the F22 sensor in media supplemented with IBMX (200μM). Ligands were added at a concentration of 20x per well for experiments (i.e. 5μl of drug solution added to 100μl of cells). […] For the resazurin reduction assay for cellular viability, cells were incubated with resazurin (final concentration, 10μM) and tested ligands with fluorescence measurements (560 nm excitation/590 nm emission) made at 1.5hr intervals.

Sm.5HTR [2] = target: T1, Sm.5HTR; test: Antagonist washout (inactivating antagonist) GloSensor assay on suspension cells; settings: for inhibition of Sm.5HTR after antagonist wash-out: 10μM for 30 mins, washout, 5-HT response 1hr later
Description: To test putative irreversible antagonists, assays on suspension cells were performed one day post transfection. […] Compounds were added at 10 μM, and after 30 minute incubation at room temperature cells were centrifuged (300 RCF, 5 minutes) and resuspended in fresh media. This wash step was repeated, and cells were resuspended in HBSS supplemented with 0.1% BSA, 20mM HEPES and GloSensor reagent. Cells were gently rotated to prevent aggregation and settling over the course of the two hour equilibration period, after which time they were transferred to 96 well plates at a density of 8 x 10^4 cells / 100μL per well and assays described for adherent cells.

Sm.5HTRL = Sm.5HTRL (Schistosoma mansoni, UniProt A0A173FEI8); test: GloSensor cAMP assay in HEK293 cells expressing Sm.5HTRL; settings: antagonists 10μM, 5-HT EC80 dose
Description: as §1, §2

[3] = EC50 (agonist, cAMP generation), F22 sensor with IBMX

T1 sequence (G4V5G4 entry or part of it): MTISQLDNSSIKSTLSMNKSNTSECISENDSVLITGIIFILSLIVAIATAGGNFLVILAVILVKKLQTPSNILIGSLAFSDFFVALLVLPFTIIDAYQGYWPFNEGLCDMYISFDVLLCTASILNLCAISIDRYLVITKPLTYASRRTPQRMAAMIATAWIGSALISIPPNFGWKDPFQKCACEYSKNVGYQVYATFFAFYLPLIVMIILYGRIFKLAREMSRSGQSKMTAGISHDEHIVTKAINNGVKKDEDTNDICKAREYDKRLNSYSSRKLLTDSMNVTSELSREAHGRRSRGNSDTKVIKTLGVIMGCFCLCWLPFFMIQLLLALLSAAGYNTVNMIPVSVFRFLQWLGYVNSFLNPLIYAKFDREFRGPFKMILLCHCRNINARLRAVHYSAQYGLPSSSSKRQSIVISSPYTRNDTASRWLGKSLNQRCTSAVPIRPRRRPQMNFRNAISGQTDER
Sequence of Sm.5HTRL (A0A173FEI8 entry or part of it): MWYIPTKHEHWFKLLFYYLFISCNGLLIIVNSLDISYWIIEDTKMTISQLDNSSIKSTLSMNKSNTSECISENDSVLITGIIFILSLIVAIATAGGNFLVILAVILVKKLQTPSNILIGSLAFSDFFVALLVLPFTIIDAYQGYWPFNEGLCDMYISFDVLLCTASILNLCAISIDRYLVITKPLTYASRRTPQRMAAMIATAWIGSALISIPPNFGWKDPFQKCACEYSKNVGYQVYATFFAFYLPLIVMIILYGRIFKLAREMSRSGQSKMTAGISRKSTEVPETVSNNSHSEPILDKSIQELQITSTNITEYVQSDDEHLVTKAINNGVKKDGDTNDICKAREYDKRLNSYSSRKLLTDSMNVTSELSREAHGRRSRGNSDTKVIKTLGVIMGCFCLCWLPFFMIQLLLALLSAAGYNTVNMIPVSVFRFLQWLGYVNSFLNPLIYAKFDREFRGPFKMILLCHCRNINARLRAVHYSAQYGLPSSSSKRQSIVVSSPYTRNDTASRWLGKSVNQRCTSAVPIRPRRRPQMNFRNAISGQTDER

With `CCN1CCCC1CNC(=O)c1cc(S(=O)(=O)CC)c(N)cc1OC` (stereo not shown) [amisulpride] the “activity at Sm.5HTR” value (Sm.5HTR [1]) was “modest effects”.

For `Cc1nc2n(c(=O)c1CCN1CCC(c3noc4cc(F)ccc34)CC1)CCCC2` [risperidone], the “acute inhibition of 5-HT (10μM) response at Sm.5HTR” value (“acute inhibition of 5-HT” below) (Sm.5HTR [1]) was “Inhibition of 5-HT response” and the “inhibition of Sm.5HTR after antagonist wash-out” value (from here on “inhibition of Sm.5HTR”) (Sm.5HTR [2]) was “long-lasting inhibition”.

In the case of `COc1cc2c(cc1OC)-c1cc3ccc(OC)c(OC)c3c[n+]1CC2` [palmatine], the “GPCR inhibition profile compared with rotundine” value (Sm.5HTR [1]) is reported as “decreased potency and selectivity for Sm.5HTR”.

`CNCCC(Oc1ccc(C(F)(F)F)cc1)c1ccccc1` (stereo not shown) [fluoxetine] was tested, and the “selectivity for Sm.5HTR over Hs.5HT7R” value (Sm.5HTR [1]) was “preferential selectivity toward Sm.5HTR”.

With `CC1CCN(CC[C@H]2CCCN2S(=O)(=O)c2cccc(O)c2)CC1` [SB269970] the “activity at Sm.5HTR” value (Sm.5HTR [1]) was “modest effects” and the “activity at Sm.5HTR” value (Sm.5HTR [1]; listed as SB 269970) was “completely lacked activity”.

`COc1cc2nc(N(C)CCCNC(=O)C3CCCO3)nc(N)c2cc1OC` (stereo not shown) [alfuzosin] was tested, and the “selectivity for Sm.5HTR over Hs.5HT7R” value (Sm.5HTR [1]) was “clear selectivity for Sm.5HTR; also recorded: clear bias toward Sm.5HTR” and the “inhibition of 5-HT evoked cAMP generation through Sm.5HTRL” value (Sm.5HTRL) was “inhibited 5-HT evoked cAMP generation”.

For `CN1C[C@H](C(=O)N[C@]2(C)O[C@@]3(O)[C@@H]4CCCN4C(=O)[C@H](Cc4ccccc4)N3C2=O)C=C2c3cccc4[nH]cc(c34)C[C@H]21` [ergotamine], the EC50 (Sm.5HTR [1]; [3]) was 232 nM, the “ligand type at Sm.5HTR” value (Sm.5HTR [1]) was “Agonist” and the Emax (Sm.5HTR [1]) was 78 ± 2%. It also gave an EC50 (Sm.5HTR [1]; pEC50 ± S.E.M) of 229 nM.

For `CSc1ccc2c(c1)C(N1CCN(C)CC1)Cc1ccccc1S2` (stereo not shown) [methiothepin], the “acute inhibition of 5-HT” value (Sm.5HTR [1]; drug 10μM, preincubation) was “antagonism of 5-HT stimulated cAMP generation; also recorded: Inhibition of 5-HT response”, the “inhibition of Sm.5HTR” value (Sm.5HTR [2]) was “long-lasting inhibition” and the “potency for Sm.5HTR inhibition after washout” value (Sm.5HTR [2]; titration, Fig 6E) was “most potent”.

`O=C(C1CCCCC1)N1CC(=O)N2CCc3ccccc3C2C1` (stereo not shown) [Praziquantel, praziquantel] was tested, and the “ligand type at Sm.5HTR” value (Sm.5HTR [1]) was “Inactive” and the “activity at Sm.5HTR” value (Sm.5HTR [1]; listed as PZQ) was “did not reveal any modulation of receptor activity; also recorded: did not yield any effect”.

For `CN1CCC(=C2c3ccccc3C=Cc3ccccc32)CC1` [cyproheptadine], the “acute inhibition of 5-HT” value (Sm.5HTR [1]) was “acutely inhibited” and the “time to full reversal of inhibition after ligand removal” value (Sm.5HTR [2]; 10μM, 30 mins preincubation) was at most 1 h.

With `CN1C[C@H](CNC(=O)OCc2ccccc2)C[C@@H]2c3cccc4c3c(cn4C)C[C@H]21` [metergoline] the “ligand type at Sm.5HTR” value (Sm.5HTR [1]) was “Antagonist”, the Kb (Sm.5HTR [1]; Schild regression, read-out: pKB ± S.E.M (converted)) was 4570 nM and the “agonist efficacy at Sm.5HTR” value (Sm.5HTR [1]) was “no efficacy”. The “acute inhibition of 5-HT” value (Sm.5HTR [1]; drug 10μM, preincubation) was “Inhibition of 5-HT response”, the Kb (Sm.5HTR [1]; right-shift of 5-HT dose-response, read-out: KB (affinity constant, Schild regression)) was 4530 nM and the “inhibition of Sm.5HTR” value (Sm.5HTR [2]) was “long-lasting inhibition”.

`CN1CCN(C2=Nc3cc(Cl)ccc3Nc3ccccc32)CC1` [clozapine] was tested, and the “acute inhibition of 5-HT” value (Sm.5HTR [1]) was “Inhibition of 5-HT response”.

`CCN(CC)C(=O)[C@@H]1C=C2c3cccc4[nH]cc(c34)C[C@H]2N(C)C1` [LSD, lysergic acid diethylamide] was tested, and the “ligand type at Sm.5HTR” value (Sm.5HTR [1]) was “Antagonist”, the Kb (Sm.5HTR [1]; KB (affinity constant, Schild regression), right-shift of 5-HT dose-response) was 629 nM and the “inhibition of 5-HT evoked cAMP generation” value (Sm.5HTR [1]; at higher concentrations (>10μM)) was “almost complete inhibition”. The “agonist efficacy at Sm.5HTR” value (Sm.5HTR [1]) was “no efficacy” and the Kb (Sm.5HTR [1]; pKB ± S.E.M, Schild regression) was 631 nM.

For `CN1C[C@H](C(=O)N[C@]2(C)O[C@@]3(O)[C@@H]4CCCN4C(=O)[C@H](Cc4ccccc4)N3C2=O)C[C@@H]2c3cccc4[nH]cc(c34)C[C@H]21` [dihydroergotamine], the EC50 (Sm.5HTR [1]; [3]) was 315 nM, the “ligand type at Sm.5HTR” value (Sm.5HTR [1]) was “Agonist” and the Emax (Sm.5HTR [1]) was 52 ± 1%. It also gave an EC50 (Sm.5HTR [1]; pEC50 ± S.E.M) of 316 nM.

With `COc1ccc2cc3[n+](cc2c1OC)CCc1cc2c(cc1-3)OCO2` [berberine] the “GPCR inhibition profile compared with rotundine” value (Sm.5HTR [1]) was “decreased potency and selectivity for Sm.5HTR”.
